Assays:
[1] = Small angle X-ray scattering, self-assembly in solution; type: physicochemical
Protocol: Concentration series of […] ranging from 0.18 mg/ml to 9.37 mg/mL was prepared in buffer containing 50 mM Tris (pH 7.4), 125 mM NaCl. Samples were measured at the P12 SAXS Beamline, […], Hamburg, Germany. Preliminary data reduction including radial averaging and conversion of the data into absolute scaled scattering intensity, I(q), as a function of the scattering vector q, where q=4π sin(θ)/λ ([…]=half scattering angle) were done using the standard procedures at the beamline. The modelling of the SAXS data was performed in two ways, firstly using the pair distance distribution function and subsequently using a molecular constrained core-shell model for polydisperse spheres. In brief, it was assumed that the peptide aggregated into polydisperse spherical micelles. Here, the hydrophobic tails form the core and these are surrounded by the hydrophilic part (the shell) in a spherical micelle. […] This was calculated by counting the number of electrons in the molecular structure and multiplying by the scattering length of the electron. For the scattering length density calculations, it was assumed that the molecular volume of the C13 alkyl chain was 377 Å3 as estimated from Tanfords empirical formula (V=27.4+26.9nC) where nC denote the number of carbons. i.e. 13 in this case. The hydrophilic headgroup was as a first estimate assumed to have a mass density corresponding to that of a soluble protein (i.e. 1.35 g/cm^3), this yielded a molecular volume of 2078 Å3. […] Excess scattering length densities were then calculated in relation to water (9.4e101/cm^2). Using this molecular restrained model, the volumes of the core and of the shell were coupled internally through the fitted aggregation number, Nagg. The polydispersity was described by a Gauss function of Nagg. The Gauss was truncated at ±3sigma. The model module “[…]” from the […] software was used for the fitting. As usual a small surface roughness and a small constant background was also necessary for the model to converge. Scattering data was merged; buffer subtracted and binned using WillItRebin with a binning factor of 1.02. The pair distance distribution functions (pddf) were fitted using bayesapp (http://www.bayesapp.org/) in the interval [0.0122-0.4] Å^-1, fitting parameters are reported in the data collection table below.

[2] = Chemical stability in PBS for 30 days, HPLC-UV-MS; type: physicochemical
Protocol: Stability was addressed by […] for four concentration 2, 20, 50 and 200 μM, by leaving […] in PBS at 5 and […] for 30 days followed by HPLC-UV-MS method

[3] = system: thermal hypersensitivity (CFA model); test: Hargreaves test, thermal hypersensitivity in CFA model; type: in vivo, mice; settings: s.c. 10 μmol/kg
Protocol: Inflammatory pain (CFA model): Animals were habituated to the experimental room for a minimum of 60 min before initiation of the experiment. Hargreave's test was performed by application of radiant heat light to the plantar surface of both hindpaw. The response latency was measured by an automated readout (Ugo Basile, Italy). The baseline paw withdrawal latency of both hind paws in response to radiant heat stimulation was performed before CFA injection, and no difference between the two pre-selected groups was found. The inflammatory pain was induced by […] of 50 μL undiluted Complete Freund's Adjuvant (CFA) ([…], Sigma) unilaterally into the intraplantar surface of the right hind paw, whereas control mice were injected with the same amount of 0.9% saline (B. Braun, Germany). All intraplantar injections were performed with and insulin needle (0.3 mL BD Micro-Fine) while the animal was under isoflurane anesthesia (2%) for maximum 60 seconds. On day 3 after CFA injection, mice were placed in individual red cylinders (8 cm in diameter, 7.5 cm tall) and thermal hyperalgesia was confirmed by a baseline reading with IR of 20. Three measurements were performed on each hindpaw of each mouse. A positive trial was defined as sudden paw withdrawal, flinching and/or paw licking induced by the infrared light. Measurements were performed before CFA injection, and at 3+4 days after CFA injection. At day 3, the measurements were performed before treatment, as well as 1, 5 and 21 hours after treatment. Peptide and vehicle were administered s.c. (10 μL/g)), and at a concentration of 0 or 10 μmol/kg. Statistical analysis was performed using GraphPad Prism 6.0. Two-way RM ANOVA followed by Bonferroni's post-hoc test. Significance level set to p<0.05.

[4] = system: spontaneous inflammatory pain (CFA model); test: Single exposure place preference (sePP), spontaneous pain; type: in vivo, mice
Protocol: Inflammatory pain (CFA model): Animals were habituated to the experimental room for a minimum of 60 min before initiation of the experiment. Mechanical pain threshold of both hind paws was determined by von Frey measurements. Injury was induced on the right hind paw, whereas the contralateral left hind paw was used as internal control of the animal. […] In the current experiment filaments in ascending order were applied to the frontocentral plantar surface of the hind paws. […] Each von Frey filament was applied five times with adequate resting periods between each application and number of withdrawals recorded. The withdrawal threshold was determined as the von Frey filament eliciting at least 3 positive trials out of the 5 applications in two consecutive filaments. A positive trial was defined as sudden paw withdrawal, flinching and/or paw licking induced by the filament. The inflammatory pain was induced by injection of 50 μL undiluted Complete Freund's Adjuvant (CFA) ([…], Sigma) unilaterally into the intraplantar surface of the right hind paw. All intraplantar injections were performed with an insulin needle (0.3 mL BD Micro-Fine), while the animal was under isoflurane anesthesia (2%) for maximum 60 seconds. […] Statistical analysis: was performed using GraphPad Prism 6.0. Student's t-test. Significance level set to p<0.05. […] All mice from a cage were tested at the same time, but not all given the same treatment. On exposure days, mice were weighed and injected s.c. with peptide (30 μmol/kg) or vehicle (10 μL/g) and immediately placed into the designated compartment for 60 min. The test group was exposed to peptide in the least preferred compartment, and vehicle (PBS) in the preferred compartment, whereas the control group was injected with vehicle in both compartments. […] Time spent in the different compartments was measured by Ethovision (Noldus, Wageningen, Netherlands). An additional experiment was run on animals without injury, showing no mPD5-dependent preference change

[5] = pair distance distribution function analysis

Question: With `CCCCCCCCCCCCCC(=O)N(CCOCCOCCC(=O)N[C@@H](Cc1c[nH]cn1)C(=O)N[C@@H](Cc1c[nH]c2ccccc12)C(=O)N[C@@H](CC(C)C)C(=O)N[C@@H](CCCCN)C(=O)N[C@H](C(=O)O)C(C)C)CCOCCOCCC(=O)N[C@@H](Cc1c[nH]cn1)C(=O)N[C@@H](Cc1c[nH]c2ccccc12)C(=O)N[C@@H](CC(C)C)C(=O)N[C@@H](CCCCN)C(=O)N[C@H](C(=O)O)C(C)C` [myr-NPEG4-(HWLKV)2] as the compound, how does the “n myr-NPEG4-(HWLKV)2, core shell model” value ([1]; 300 μM) read?
Answer: The value was 19.

Question: And the “n myr-NPEG4-(HWLKV)2, core shell model” value ([1]; 400 μM)?
Answer: Its value is 22.

Question: And the “n myr-NPEG4-(HWLKV)2, core shell model” value ([1]; 1000 μM)?
Answer: Its value is 22.

Question: What about the “n myr-NPEG4-(HWLKV)2, core shell model” value ([1]; 3000 μM) of the same compound?
Answer: Its value is 21.

Question: And the “n myr-NPEG4-(HWLKV)2, core shell model” value ([1]; 5000 μM)?
Answer: The value was 19.

Question: What about the “number of individual molecules per micelle” value ([1]; core-shell model) of the same compound?
Answer: The value was 19-22.

Question: What about the “outer radius of spherical core-shell micelle” value ([1]; core-shell model) of the same compound?
Answer: Its value is 20-24 Å.

Question: And the “number of individual molecules per assembly” value [1, 5]?
Answer: Its value is 5-8.

Question: And the “radius of gyration (Rg) of micellar structures” value [1, 5]?
Answer: The value was 20-23.6 Å.

Question: What about the “Measured Conc. mPD5” value ([2]; 30 days @5° C, nominal 2 μM) of the same compound?
Answer: Its value is 0.5 µM.

Question: And the “Measured Conc. mPD5” value ([2]; 30 days @5° C, nominal 20 μM)?
Answer: Its value is 17 µM.

Question: And the “Measured Conc. mPD5” value ([2]; 30 days @5° C, nominal 50 μM)?
Answer: The value was 49 µM.

Question: And the “Measured Conc. mPD5” value ([2]; 30 days @5° C, nominal 200 μM)?
Answer: The value was 194 µM.

Question: And the “Measured Conc. mPD5” value ([2]; 30 days @25° C, nominal 2 μM)?
Answer: The value was 0.4 µM.

Question: And the “Measured Conc. mPD5” value ([2]; 30 days @25° C, nominal 20 μM)?
Answer: Its value is 17 µM.

Question: What about the “Measured Conc. mPD5” value ([2]; 30 days @25° C, nominal 50 μM) of the same compound?
Answer: Its value is 48 µM.

Question: And the “Measured Conc. mPD5” value ([2]; 30 days @25° C, nominal 200 μM)?
Answer: The value was 203 µM.

Question: What about the “chemically stable for” value ([2]; +5° C. and +25° C. in the vehicle compositions) of the same compound?
Answer: The value was “at least 30 days”.

Question: And the degradation ([2]; PBS, 30 days, +5° C. and +25° C.)?
Answer: The degradation was “No degradation was observed”.

Question: What about the purity after storage ([2]; samples with 200 and 50 μM, 30 days in PBS) of the same compound?
Answer: The purity after storage was greater than 98%.

Question: What about the “pain relief (paw withdrawal latency), sensitized paw” value ([3]; 5 hours) of the same compound?
Answer: Its value is “less pronounced”.

Question: What about the “paw withdrawal latency, contralateral (healthy) paw” value ([3]; day 3 after CFA) of the same compound?
Answer: The value was “no significant changes”.

Question: And the “paw withdrawal latency, sensitized (ipsilateral) paw” value ([3]; day 3 after CFA)?
Answer: Its value is “highly significant increase in paw withdrawal latency”.

Question: And the “pain relief (paw withdrawal latency), sensitized paw” value ([3]; following day (21 h))?
Answer: The value was “fully dissolved”.

Question: And the “place preference, time in drug-paired compartment vs vehicle-treated controls” value ([4]; CFA-injured mice, s.c. 30 μmol/kg, single exposure)?
Answer: Its value is “spent significantly more time in the myr-NPEG4-(HWLKV)2-paired compartment”.

Question: What about the place preference ([4]; mice without injury (Naïve), s.c. 30 μmol/kg, single exposure) of the same compound?
Answer: Its place preference is “no change in preference”.

Question: And the abuse liability ([4]; mouse, in vivo)?
Answer: Its abuse liability is “lack of abuse liability”.

— patent US20230346948A1, “Lipid conjugated peptide inhibitors of PICK1” (University of Copenhagen, priority 2020, published 2023)
